In the supplement of paper PMC12463676, “Small-molecule dissolution of stress granules by redox modulation benefits ALS models” (Nature Chemical Biology, 2025):

Columns and labels:
potassium arsenate = compound: O=[As]([O-])(O)O.[K+] [potassium arsenate]; assay: thermal stability z-score vs DMSO; higher = more thermally stabilized by treatment; settings: HeLa; arsenate concentration 1 mM
Method: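 Cellular thermal proteome profiling in HeLa cells treated with 1 mM arsenate for 1 h (DMSO pretreatment), heated to ten temperatures (37-66.3 °C). Soluble protein was quantified by TMT mass spectrometry relative to DMSO controls; the thermal stability score was transformed to a z-score; mean of n = 3 experiments.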

lipoamide = compound: NC(=O)CCCCC1CCSS1 [lipoamide]; assay: as above; settings: HeLa, lipoamide concentration 100 µM
Method: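 Cellular thermal proteome profiling in HeLa cells. Cells were treated with 100 µM lipoamide for 1 h, with or without 1 mM arsenate for a further 1 h, then heated to ten temperatures (37-66.3 °C), and soluble protein was quantified by TMT mass spectrometry relative to 0.1% DMSO controls. The thermal stability score (sum of log2 fold changes minus the abundance score) was transformed to a z-score; mean of n = 3 experiments.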

[1] = arsenate co-treatment: 1 mM arsenate 1 h
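Also: each temperature applied for 3 min, abundance score taken as mean log2 fold change at the two lowest temperatures, z-score obtained by mean subtraction and division by SD.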

UniProt P14866, sequence (P14866 whole entry): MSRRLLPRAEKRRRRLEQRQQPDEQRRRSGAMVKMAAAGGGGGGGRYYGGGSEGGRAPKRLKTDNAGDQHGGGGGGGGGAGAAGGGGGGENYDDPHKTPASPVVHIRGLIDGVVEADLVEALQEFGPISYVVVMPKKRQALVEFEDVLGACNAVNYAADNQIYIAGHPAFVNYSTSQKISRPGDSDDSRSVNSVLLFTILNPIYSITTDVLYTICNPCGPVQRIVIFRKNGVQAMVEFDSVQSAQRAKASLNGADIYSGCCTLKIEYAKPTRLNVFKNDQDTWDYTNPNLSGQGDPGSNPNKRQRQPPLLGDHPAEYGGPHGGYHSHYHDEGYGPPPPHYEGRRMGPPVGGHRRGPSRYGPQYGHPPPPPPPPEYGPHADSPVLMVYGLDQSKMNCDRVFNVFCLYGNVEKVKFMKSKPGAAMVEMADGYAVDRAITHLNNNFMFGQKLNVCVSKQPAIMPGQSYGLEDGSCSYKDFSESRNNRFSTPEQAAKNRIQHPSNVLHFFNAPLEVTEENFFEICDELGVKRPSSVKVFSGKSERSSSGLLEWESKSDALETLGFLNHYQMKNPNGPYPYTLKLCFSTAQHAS
UniProt Q9UDY4, sequence (Q9UDY4 whole entry): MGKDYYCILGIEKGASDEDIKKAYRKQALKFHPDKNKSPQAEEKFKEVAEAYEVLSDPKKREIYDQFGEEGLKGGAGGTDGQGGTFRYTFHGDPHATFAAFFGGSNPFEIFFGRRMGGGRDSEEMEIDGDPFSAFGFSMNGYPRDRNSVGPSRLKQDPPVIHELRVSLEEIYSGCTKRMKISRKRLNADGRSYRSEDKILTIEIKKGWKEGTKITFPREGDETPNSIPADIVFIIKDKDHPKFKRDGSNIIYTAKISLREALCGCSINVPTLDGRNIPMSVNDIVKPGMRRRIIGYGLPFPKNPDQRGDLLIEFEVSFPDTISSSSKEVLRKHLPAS
UniProt P30154, sequence (P30154 whole entry): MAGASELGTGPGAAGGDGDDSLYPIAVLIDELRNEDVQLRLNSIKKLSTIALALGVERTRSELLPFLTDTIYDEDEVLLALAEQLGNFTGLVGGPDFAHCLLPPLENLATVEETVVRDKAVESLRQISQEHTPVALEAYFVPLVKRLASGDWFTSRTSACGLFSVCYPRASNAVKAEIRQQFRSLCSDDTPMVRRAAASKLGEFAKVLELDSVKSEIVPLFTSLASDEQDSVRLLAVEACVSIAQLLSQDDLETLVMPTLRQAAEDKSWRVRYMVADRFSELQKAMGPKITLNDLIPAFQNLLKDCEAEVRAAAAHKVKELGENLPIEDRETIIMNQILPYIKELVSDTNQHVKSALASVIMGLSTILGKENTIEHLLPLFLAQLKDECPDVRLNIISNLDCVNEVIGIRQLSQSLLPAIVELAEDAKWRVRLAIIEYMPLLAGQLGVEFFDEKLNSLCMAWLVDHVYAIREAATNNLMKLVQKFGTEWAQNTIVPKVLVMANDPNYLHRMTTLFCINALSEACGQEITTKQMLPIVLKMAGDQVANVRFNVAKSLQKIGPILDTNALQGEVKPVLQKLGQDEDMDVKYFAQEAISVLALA
UniProt Q86W92, sequence (Q86W92 whole entry): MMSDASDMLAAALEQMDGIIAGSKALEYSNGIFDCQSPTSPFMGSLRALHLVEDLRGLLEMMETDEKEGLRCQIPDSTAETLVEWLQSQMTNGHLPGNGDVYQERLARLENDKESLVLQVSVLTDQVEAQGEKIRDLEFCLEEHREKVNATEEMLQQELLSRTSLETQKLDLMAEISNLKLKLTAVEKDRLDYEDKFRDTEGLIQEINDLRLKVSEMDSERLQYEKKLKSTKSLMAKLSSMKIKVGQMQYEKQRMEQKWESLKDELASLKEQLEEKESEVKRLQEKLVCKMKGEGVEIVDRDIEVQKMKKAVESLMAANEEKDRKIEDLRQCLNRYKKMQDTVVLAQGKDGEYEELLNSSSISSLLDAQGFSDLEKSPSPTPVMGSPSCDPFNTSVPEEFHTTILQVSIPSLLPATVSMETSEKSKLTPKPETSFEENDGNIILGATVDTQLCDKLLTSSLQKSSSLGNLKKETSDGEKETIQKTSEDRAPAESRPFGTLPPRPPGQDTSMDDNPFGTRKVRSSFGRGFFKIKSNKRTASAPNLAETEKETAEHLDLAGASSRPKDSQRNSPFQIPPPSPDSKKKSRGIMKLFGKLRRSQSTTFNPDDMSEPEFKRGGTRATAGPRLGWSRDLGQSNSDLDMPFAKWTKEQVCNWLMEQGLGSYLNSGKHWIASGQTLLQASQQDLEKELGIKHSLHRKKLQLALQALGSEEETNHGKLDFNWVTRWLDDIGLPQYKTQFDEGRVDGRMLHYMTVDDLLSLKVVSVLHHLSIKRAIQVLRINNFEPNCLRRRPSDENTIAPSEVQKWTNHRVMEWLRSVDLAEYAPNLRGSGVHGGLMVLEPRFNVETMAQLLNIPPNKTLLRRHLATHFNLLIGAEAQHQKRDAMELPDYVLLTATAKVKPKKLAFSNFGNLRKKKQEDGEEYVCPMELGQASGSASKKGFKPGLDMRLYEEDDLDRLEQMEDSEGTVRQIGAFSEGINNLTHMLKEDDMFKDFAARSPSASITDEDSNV
UniProt Q9HB90, sequence (Q9HB90 whole entry): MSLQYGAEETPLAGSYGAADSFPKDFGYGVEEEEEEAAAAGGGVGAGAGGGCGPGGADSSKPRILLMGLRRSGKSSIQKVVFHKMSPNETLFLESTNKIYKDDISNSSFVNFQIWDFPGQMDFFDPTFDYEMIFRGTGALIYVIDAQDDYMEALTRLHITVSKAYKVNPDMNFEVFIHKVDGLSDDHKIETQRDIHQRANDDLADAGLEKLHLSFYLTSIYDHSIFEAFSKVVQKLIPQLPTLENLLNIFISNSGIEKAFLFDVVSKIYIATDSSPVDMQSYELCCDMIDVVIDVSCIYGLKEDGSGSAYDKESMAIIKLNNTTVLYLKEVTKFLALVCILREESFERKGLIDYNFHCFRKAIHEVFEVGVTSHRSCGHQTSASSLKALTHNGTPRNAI
UniProt Q969N2, sequence (Q969N2 whole entry): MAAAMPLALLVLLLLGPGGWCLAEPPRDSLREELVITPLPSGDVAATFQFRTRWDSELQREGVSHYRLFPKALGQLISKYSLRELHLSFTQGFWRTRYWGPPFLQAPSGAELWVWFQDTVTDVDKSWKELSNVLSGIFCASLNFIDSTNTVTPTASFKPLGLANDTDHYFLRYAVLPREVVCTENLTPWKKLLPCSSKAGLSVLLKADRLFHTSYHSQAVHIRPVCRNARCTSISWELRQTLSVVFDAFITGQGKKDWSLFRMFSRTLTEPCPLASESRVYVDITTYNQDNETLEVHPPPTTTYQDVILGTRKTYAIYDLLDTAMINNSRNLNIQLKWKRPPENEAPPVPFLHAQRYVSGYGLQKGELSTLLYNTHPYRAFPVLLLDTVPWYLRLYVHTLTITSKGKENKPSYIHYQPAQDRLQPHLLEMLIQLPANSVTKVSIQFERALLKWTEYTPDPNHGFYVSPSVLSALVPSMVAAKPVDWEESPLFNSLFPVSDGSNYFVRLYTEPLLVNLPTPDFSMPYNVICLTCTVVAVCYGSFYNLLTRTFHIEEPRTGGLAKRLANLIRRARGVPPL
UniProt O43766, sequence (O43766 whole entry): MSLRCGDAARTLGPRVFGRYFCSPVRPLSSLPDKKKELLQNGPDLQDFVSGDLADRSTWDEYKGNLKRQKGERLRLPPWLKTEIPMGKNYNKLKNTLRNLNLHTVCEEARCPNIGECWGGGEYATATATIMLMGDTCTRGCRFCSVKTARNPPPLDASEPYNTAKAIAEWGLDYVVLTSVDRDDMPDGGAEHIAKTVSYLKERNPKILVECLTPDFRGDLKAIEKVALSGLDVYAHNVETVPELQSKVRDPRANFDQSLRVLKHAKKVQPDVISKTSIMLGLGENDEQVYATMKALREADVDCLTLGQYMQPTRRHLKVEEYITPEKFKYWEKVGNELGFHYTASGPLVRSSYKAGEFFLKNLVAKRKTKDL
UniProt Q96CS2, sequence (Q96CS2 whole entry): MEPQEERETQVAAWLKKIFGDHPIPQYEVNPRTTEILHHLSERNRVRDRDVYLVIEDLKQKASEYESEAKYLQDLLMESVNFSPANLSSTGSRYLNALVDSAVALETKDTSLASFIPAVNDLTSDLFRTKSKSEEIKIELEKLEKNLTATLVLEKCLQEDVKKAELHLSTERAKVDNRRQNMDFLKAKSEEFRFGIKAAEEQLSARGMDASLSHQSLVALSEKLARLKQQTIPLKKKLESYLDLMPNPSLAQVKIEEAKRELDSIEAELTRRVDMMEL
UniProt Q9C0D3, sequence (Q9C0D3 whole entry): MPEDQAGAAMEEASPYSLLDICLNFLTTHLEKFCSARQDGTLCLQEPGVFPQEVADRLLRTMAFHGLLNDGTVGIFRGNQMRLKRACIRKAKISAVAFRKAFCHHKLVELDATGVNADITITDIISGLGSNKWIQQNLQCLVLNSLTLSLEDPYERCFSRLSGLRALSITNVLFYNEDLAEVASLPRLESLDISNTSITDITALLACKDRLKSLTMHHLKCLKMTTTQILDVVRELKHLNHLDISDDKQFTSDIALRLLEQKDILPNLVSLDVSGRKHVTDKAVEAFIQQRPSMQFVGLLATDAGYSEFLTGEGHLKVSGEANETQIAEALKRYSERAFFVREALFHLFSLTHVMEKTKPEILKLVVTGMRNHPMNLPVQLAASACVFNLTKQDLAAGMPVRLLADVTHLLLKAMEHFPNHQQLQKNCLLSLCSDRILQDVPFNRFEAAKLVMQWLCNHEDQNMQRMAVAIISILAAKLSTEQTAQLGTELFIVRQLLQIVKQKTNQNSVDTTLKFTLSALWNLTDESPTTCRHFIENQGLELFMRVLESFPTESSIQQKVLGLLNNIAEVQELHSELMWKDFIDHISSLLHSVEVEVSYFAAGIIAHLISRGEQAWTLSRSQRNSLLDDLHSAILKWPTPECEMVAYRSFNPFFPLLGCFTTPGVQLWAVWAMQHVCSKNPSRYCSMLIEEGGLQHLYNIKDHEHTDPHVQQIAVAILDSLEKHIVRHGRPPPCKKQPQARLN

Target	thermal stability z-score (potassium arsenate)	thermal stability z-score (lipoamide; [1])	thermal stability z-score (lipoamide; arsenate co-treatment: none)
HRSP12 (UniProt P52758)	0.206	0.703	0.341
METTL15 (UniProt A6NJ78)	0.348	0.0439	-0.103
TUT1 (UniProt Q9H6E5)	-0.479	0.0998	-0.00913
CDC20 (UniProt Q12834)	-1.51	-0.124	-0.245
PANK4 (UniProt Q9NVE7)	0.112	-0.399	-0.303
PPFIBP1 (UniProt Q86W92)	0.32	-0.215	0.229
SEC13 (UniProt P55735)	0.729	0.378	0.46
PEX6 (UniProt Q13608)	0.938	0.132	0.339
MPP7 (UniProt Q5T2T1)	-0.0635	-0.0378	-0.274
NUDT16 (UniProt Q96DE0)	-0.335	0.938	0.232
ASNSD1 (UniProt Q9NWL6)	-0.734	-0.942	-0.0608
RRAGC (UniProt Q9HB90)	-0.786	0.182	-0.182
LIAS (UniProt O43766)	-2.31	1.93	3.09
ISY1 (UniProt Q9ULR0)	-0.872	0.997	0.693
CHMP4B (UniProt Q9H444)	-0.176	0.0919	0.359
PIGT (UniProt Q969N2)	-0.105	-3.54	-2.49
ARL6IP4 (UniProt Q66PJ3)	0.572	0.727	-0.0769
HAUS1 (UniProt Q96CS2)	0.0563	0.0371	0.00541
GEMIN4 (UniProt P57678)	-0.0793	-0.347	-0.228
RPL13 (UniProt P26373)	-1.05	-0.064	0.00879
GPR89A|GPR89B	-0.0938	-0.28	-0.026
SYDE1 (UniProt Q6ZW31)	-0.278	-0.177	-0.208
HNRNPL (UniProt P14866)	-2.57	0.204	0.05
SNRPA1 (UniProt P09661)	0.474	1.91	1.08

Target	thermal stability z-score (potassium arsenate)	thermal stability z-score (lipoamide; [1])	thermal stability z-score (lipoamide; arsenate co-treatment: none)
EBNA1BP2 (UniProt Q99848)	0.463	0.29	-0.281
PPP6R2 (UniProt O75170)	-0.937	-0.348	0.143
CORO1C (UniProt Q9ULV4)	1.13	-1.05	-0.614
HGS (UniProt O14964)	0.102	0.268	0.638
PPP2R1B (UniProt P30154)	0.107	0.0372	-0.0931
ZNF281 (UniProt Q9Y2X9)	0.133	-0.165	-0.214
TMEM173 (UniProt Q86WV6)	-0.0763	0.0822	-0.0914
CPM (UniProt P14384)	0.405	0.0529	-0.163
HABP4 (UniProt Q5JVS0)	-0.0745	0.171	-0.0888
GAMT (UniProt Q14353)	-0.0271	-0.374	0.506
FH (UniProt P07954)	-1.66	0.0704	0.0826
EIF5 (UniProt P55010)	-1.08	0.0938	0.375
RNF214 (UniProt Q8ND24)	-0.33	-0.0786	-0.0159
DNAJB4 (UniProt Q9UDY4)	-0.708	-0.368	-0.146
DDX18 (UniProt Q9NVP1)	-1.26	0.301	0.0191
NFS1 (UniProt Q9Y697)	-1.15	-0.356	-0.438
ZYG11B (UniProt Q9C0D3)	-0.142	-0.0727	-0.16
NECAP2 (UniProt Q9NVZ3)	-0.238	0.16	-0.169
RPP30 (UniProt P78346)	-1.55	-0.9	-0.668
GCN1 (UniProt Q92616)	0.522	-0.244	0.292
RAB23 (UniProt Q9ULC3)	-0.626	0.712	0.437
BRD9 (UniProt Q9H8M2)	0.496	0.218	0.153
NSRP1 (UniProt Q9H0G5)	1.07	0.844	0.0777
NUP107 (UniProt P57740)	0.77	-0.163	-0.0082

Target	thermal stability z-score (potassium arsenate)	thermal stability z-score (lipoamide; [1])	thermal stability z-score (lipoamide; arsenate co-treatment: none)
KARS (UniProt Q15046)	1.5	-0.646	-0.663
BCL3 (UniProt P20749)	-0.0259	-0.234	0.114
EMC3 (UniProt Q9P0I2)	-0.133	-0.0707	-0.245
UTP14A (UniProt Q9BVJ6)	2.11	1.62	0.823
SET (UniProt Q01105)	-0.503	0.154	0.00988
LYAR (UniProt Q9NX58)	-3.87	-0.425	-0.893
PALLD (UniProt Q8WX93)	-0.249	-0.57	0.141
COG8 (UniProt Q96MW5)	0.149	0.022	0.151
PSMC4 (UniProt P43686)	-0.369	-0.725	-0.18
HSP90AB1 (UniProt P08238)	0.108	-0.421	-0.166
LGALS3BP (UniProt Q08380)	0.946	-2.58	-2.13
FAH (UniProt P16930)	-0.623	0.241	-0.125
RETSAT (UniProt Q6NUM9)	-0.259	0.0873	0.172
YARS2 (UniProt Q9Y2Z4)	0.423	-0.741	-0.156
ARHGEF7 (UniProt Q14155)	-0.0377	-0.856	-0.54
CTDP1 (UniProt Q9Y5B0)	-0.903	-0.373	-0.652
RSU1 (UniProt Q15404)	-1.38	-0.465	-0.369
MTERF4 (UniProt Q7Z6M4)	-0.0404	-0.0828	0.0195
PRKAR1B (UniProt P31321)	1.31	0.568	0.264
CXORF38 (UniProt Q8TB03)	-1.87	0.486	0.307
MYO6 (UniProt Q9UM54)	-0.115	0.203	0.26
CTNNAL1 (UniProt Q9UBT7)	0.675	0.0967	0.168
APMAP (UniProt Q9HDC9)	0.179	1.33	0.655
